In patent publication EP0603240B1, “SAFENING HERBICIDAL PYRAZOLYLSULFONYLUREAS” (priority 1991, dated 1993):

Experiments:
[1] = tested on: barnyardgrass (Echinochloa crusgalli); experiment: Example 9, Procedure II: Herbicide No. 1 + pretilachlor (No. 13) with antidotes; assay type: in vivo
Experimental: (§1) Containers were filled and compacted with a fumigated silt loam top soil to a depth of about 1.3 cm from the top of the container. A first container was designated as an untreated control, a second container was designated as a herbicide control, and a third container was designated as a herbicide + antidote test container. Each of the containers was seeded with a crop species. A measured amount of herbicide dispersed or dissolved in acetone was applied to a measured quantity of soil. To this same quantity of soil treated with herbicide, there was added a measured amount of antidote dispersed or dissolved in acetone. The quantity of soil treated with the herbicide and antidote was thoroughly mixed to incorporate the herbicide and antidote in the soil uniformly. The seed bed in the third container of soil was covered with the soil treated with the herbicide and antidote and the container was leveled. For each test series, the seed beds of the first and second containers were likewise covered by soil layers. the cover layer of the first container was not treated with herbicide or antidote.
(§2) The containers were then placed on a bench in a greenhouse and sub-irrigated as required for the duration of the test. […] Plant response is measured in terms of percent injury. Antidote efficacy is indicated as the difference in plant injury by the herbicide(s) without the antidote and with the antidote.
(§3) This procedure is the same as Procedure I, but modified in the manner that after incorporation of the chemicals (herbicide and antidote) the containers with the covered seedbed were treated with an initial overhead irrigation equivalent to 0.6 cm rainfall, then subsequently sub-irrigated as required on greenhouse benches.
(§4) In the series of greenhouse tests described below, for routine screening purposes the herbicide/antidote compositions were tested in crop/weed combinations involving corn as the crop and either or both of the weeds barnyardgrass (Echinochloa crusgalli), a monocotyledonous weed, and velvetleaf (Abutilon theophrasti), a dicotyledonous weed. In the tables below, these weeds are indicated by the symbols "BYG" and "VL", respectively.
(§5) In this example the safening effect on a composition comprising Herbicide No. 1 and another leading rice herbicide, i.e., Herbicide No. 13, was investigated using the same antidotes and test procedure described in the preceding example. Herbicide No. 13 is pretilachlor, active ingredient used in the commercial rice herbicides RIFIT®, SOFIT® and SOFIT® SUPER.

[2] = tested on: velvetleaf (Abutilon theophrasti); experiment: as above; assay type: in vivo
Experimental: as §1, §2, §3, §4, §5

[3] = tested on: corn; experiment: Example 25, greenhouse preemergence test: Antidote Nos. 1 and 2 against Herbicide Nos. 1-3; assay type: in vivo, Corn (Pioneer 3424 variety); details: Preemergence
Experimental: The chemicals were tested in both preemergence and post-emergence modes of application. The herbicides were prepared and applied as wettable powders; dichlormid was applied as an emulsifiable concentrate, while the naphthalic anhydride was applied as a coating on the corn seed prior to planting.
Test data from the preemergence tests are shown in Table 25A and from the post-emergence tests in Table 25B. In the tables, the concentration of chemicals is shown in terms of active ingredient in grams per hectare (G/ha); concentrations of the naphthalic anhydride were not measured per se, but were present as in conventional, normally-coated applications. Corn injury is shown in terms of percent inhibition of growth.

[4] = tested on: corn; experiment: Example 15, Procedure II: Herbicide No. 1 + butylate (No. 10) with antidotes; assay type: in vivo
Experimental: as §1, §2, §3
This example describes experiments designed to investigate the antidotal efficacy of a plurality of antidotes against the herbicidal action of a combination of Herbicide No. 1 and butylate in corn and the prevalent weeds barnyardgrass and velvetleaf. The antidotes used in these experiments were Nos. 1-10, 12, 13 and 15.
The test procedure used in these experiments was that of Procedure II described above. The antidotes were applied to a soil cover layer by pipet after spraying the herbicides onto the soil, followed by incorporation and overhead irrigation.

[5] = tested on: corn; experiment: Example 12, Procedure II: Herbicide No. 1 + acetochlor (No. 6) with thirteen antidotes; assay type: in vivo
How it was run: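 Herbicide and antidote in acetone were mixed into silt loam used to cover the corn seed bed, alongside untreated and herbicide-only controls. After incorporation, an overhead irrigation equal to 0.6 cm rainfall was given, then sub-irrigation in a greenhouse. Injury was scored as percent; safening is the injury difference without versus with antidote.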

[6] = tested on: corn; experiment: Example 13, Procedure II: Herbicide No. 1 + acetochlor (No. 6) with dichloroacetamide antidotes; assay type: in vivo
Experimental: as §1, §2, §3
In this example a plurality of dichloroacetamide antidotes were tested for their safening efficacy against a herbicidal composition comprising Herbicide No. 1 and a co-herbicide, acetochlor (Herbicide No. 6) in corn in the presence of velvetleaf. The procedure used in this example was Procedure II above.

[7] = tested on: corn; experiment: Example 4, Procedure I: Antidote Nos. 15 and 16 against Herbicide No. 1; assay type: in vivo
Experimental: as §1, §2
(§6) This example describes tests with Antidote Nos. 15 and 16 to safen Herbicide No. 1 according to Procedure I using corn and the weeds barnyardgrass and velvetleaf as the test plants.

[8] = tested on: corn; experiment: Example 5, Procedure I: Herbicide No. 1 + alachlor (No. 7) with Antidote Nos. 15 and 16; assay type: in vivo; details: Herbicide Nos. 1 and 7, Table 5
Experimental: as §1, §2, §6
In the tests described in this example, the same procedure described in Example 4 was performed simultaneously therewith and under the same conditions, except that a co-herbicide, alachlor, was included in the same composition with Herbicide No. 1 and Antidote Nos. 15 and 16. Alachlor (Herbicide No. 7 herein) is the active ingredient in the commercial product LASSO® herbicide.

[9] = tested on: corn; experiment: Example 2, Procedure II: dichloroacetamide antidotes against Herbicide No. 1; assay type: in vivo; details: Herbicide No. 1, Table 2
Experimental: as §1, §2, §3
In this example, a plurality of dichloroacetamide antidotes were tested for their safening efficacy against Herbicide No. 1 in corn, using Procedure II. In this test the weed was velvetleaf; barnyardgrass was not present in this test.

[10] = Herbicide No.1 0.14 kg/ha + Herbicide No.13 2.24 kg/ha, antidote rate 2.24 kg/ha
[11] = Herbicide No.1 0.14 kg/ha + Herbicide No.13 2.24 kg/ha, antidote rate 8.96 kg/ha
[12] = Herbicide No.1 0.56 kg/ha + Herbicide No.13 2.24 kg/ha, antidote rate 2.24 kg/ha
[13] = Herbicide No.1 0.56 kg/ha + Herbicide No.13 2.24 kg/ha, antidote rate 8.96 kg/ha
[14] = Herbicide No.1 0.56 kg/ha + Herbicide No.10 6.72 kg/ha, antidote rate 2.24 kg/ha
[15] = Herbicide No.1 0.56 kg/ha + Herbicide No.10 6.72 kg/ha, antidote rate 8.96 kg/ha
[16] = Herbicide No.1 1.12 kg/ha + Herbicide No.10 6.72 kg/ha, antidote rate 2.24 kg/ha
[17] = Herbicide No.1 1.12 kg/ha + Herbicide No.10 6.72 kg/ha, antidote rate 8.96 kg/ha
[18] = Herbicide No.1 0.14 kg/ha + Herbicide No.6 2.24 kg/ha, antidote rate 2.24 kg/ha
[19] = Herbicide No.1 0.14 kg/ha + Herbicide No.6 2.24 kg/ha, antidote rate 8.96 kg/ha
[20] = Herbicide No.1 0.56 kg/ha + Herbicide No.6 2.24 kg/ha, antidote rate 2.24 kg/ha
[21] = Herbicide No.1 0.56 kg/ha + Herbicide No.6 2.24 kg/ha, antidote rate 8.96 kg/ha

Compound | % Injury BYG [1, 10] [%] | % Injury BYG [1, 11] [%] | % Injury BYG [1, 12] [%] | % Injury BYG [1, 13] [%] | % Injury VL [2, 10] [%] | % Injury VL [2, 11] [%] | % Injury VL [2, 12] [%] | % Injury VL [2, 13] [%] | % Injury Corn [4, 14] [%] | % Injury Corn [4, 15] [%] | % Injury Corn [4, 16] [%] | % Injury Corn [4, 17] [%] | % Injury Corn [5, 18] [%] | % Injury Corn [5, 19] [%] | % Injury Corn [5, 20] [%] | % Injury Corn [5, 21] [%] | other results
O=C1OC(=O)c2cccc3cccc1c23 [compound 2] | 100 | 100 | 100 | 100 | 80 | 75 | 85 | 80 | – | – | – | – | – | – | – | – | % Inhibition Corn ([3]; Herbicide No. 1 0.25 G/ha + antidote as seed treatment (concentration not measured)): 18.2%; % Inhibition Corn ([3]; Herbicide No. 1 0.74 G/ha + antidote as seed treatment (concentration not measured)): 31.2%; % Inhibition Corn ([3]; Herbicide No. 2 0.25 G/ha + antidote as seed treatment (concentration not measured)): 31.5%; % Inhibition Corn ([3]; Herbicide No. 2 0.74 G/ha + antidote as seed treatment (concentration not measured)): 18.9%; % Inhibition Corn ([3]; Herbicide No. 2 2.5 G/ha + antidote as seed treatment (concentration not measured)): 31.9%; % Inhibition Corn ([3]; Herbicide No. 3 0.07 G/ha + antidote as seed treatment (concentration not measured)): 13.2%; % Inhibition Corn ([3]; Herbicide No. 3 0.25 G/ha + antidote as seed treatment (concentration not measured)): 29.3%; % Inhibition Corn ([3]; Herbicide No. 3 0.74 G/ha + antidote as seed treatment (concentration not measured)): 46.9%; % Inhibition Corn ([3]; antidote alone as seed treatment (concentration not measured), no herbicide): 17.4%
O=C(C(Cl)Cl)N1CCOC12CCCCC2 [compound 7] | 100 | 100 | 100 | 100 | 80 | 75 | 85 | 85 | – | – | – | – | – | – | – | – | –
CC1(C(Cl)Cl)OCCO1 [compound 13] | 100 | 100 | 100 | 100 | 70 | 75 | 90 | 90 | 10 | 15 | 20 | 0 | 10 | 30 | 35 | 40 | –
C=CCN(CC=C)C(=O)C(Cl)Cl [compound 1] | 100 | 100 | 100 | 100 | 75 | 75 | 85 | 85 | 15 | 10 | 20 | 30 | 10 | 10 | 15 | 15 | % Injury Corn ([6]; Herbicide No.1 0.56 kg/ha + Herbicide No.6 4.48 kg/ha, antidote rate 0.56 kg/ha): 5%; % Injury Corn ([6]; Herbicide No.1 0.56 kg/ha + Herbicide No.6 4.48 kg/ha, antidote rate 2.24 kg/ha): 10%; % Injury Corn ([6]; Herbicide No.6 4.48 kg/ha, no Herbicide No.1, antidote rate 0.56 kg/ha): 20%; % Injury Corn ([6]; Herbicide No.6 4.48 kg/ha, no Herbicide No.1, antidote rate 2.24 kg/ha): 10%; % Inhibition Corn ([3]; Herbicide No. 1 0.25 G/ha + antidote 7.41 G/ha): 23.2%; % Inhibition Corn ([3]; Herbicide No. 1 0.74 G/ha + antidote 7.41 G/ha): 28.4%; % Inhibition Corn ([3]; Herbicide No. 1 2.5 G/ha + antidote 7.41 G/ha): 26.2%; % Inhibition Corn ([3]; Herbicide No. 2 0.25 G/ha + antidote 7.41 G/ha): 26.5%; % Inhibition Corn ([3]; Herbicide No. 2 0.74 G/ha + antidote 7.41 G/ha): 28.9%; % Inhibition Corn ([3]; Herbicide No. 2 2.5 G/ha + antidote 7.41 G/ha): 37.3%; % Inhibition Corn ([3]; Herbicide No. 3 0.07 G/ha + antidote 7.41 G/ha): 9.3%; % Inhibition Corn ([3]; Herbicide No. 3 0.25 G/ha + antidote 7.41 G/ha): 43.0%; % Inhibition Corn ([3]; Herbicide No. 3 0.74 G/ha + antidote 7.41 G/ha): 83.9%; inhibition at 7.41 g/ha ([3]; Zea mays, pre-emergence, antidote alone 7.41 G/ha, no herbicide, read-out: % Inhibition Corn): 21%
CC1(C)OC(c2ccco2)CN1C(=O)C(Cl)Cl (centres unmarked) [Antidote No. 15, Oxazolidine, 3-(dichloroacetyl)-5-(2-furanyl)-2,2-dimethyl] | – | – | – | – | – | – | – | – | – | – | – | – | – | – | – | – | % Injury Corn ([7]; Herb. No. 1 4.48 kg/ha + antidote 0.56 kg/ha): 10%; % Injury Corn ([7]; Herb. No. 1 4.48 kg/ha + antidote 2.24 kg/ha): 13%; safening of corn, assessment in words ([7]; Herbicide No. 1, Table 4): substantial safening of Herbicide No. 1; safening of corn, assessment in words ([6]; Herbicide Nos. 1 and 6, Table 13): most active overall; safening of corn, assessment in words [8]: substantial safening of corn; safening of corn, assessment in words [9]: most safening and commercial-level protection for corn, at all ratios tested
